Assay results published in patent US5817755A, “Synthetic peptide analogs of cross-linked N-telopeptides of type I collagen” (Washington Research Foundation, priority 1997, dated 1998).
Non-standard residues stand in square brackets, D forms with d. Residues, ends and D or L forms follow the SMILES beside them. Cya = N[C@@H](CS(=O)(=O)O)C(=O)O; Aad = N[C@@H](CCCC(=O)O)C(=O)O; pGlu = O=C1CC[C@@H](C(=O)O)N1; Nva = CCC[C@H](N)C(=O)O

Tested on: mAb 1H11
Test: OSTEOMARK competitive immunoassay testing apparent affinity of synthetic peptides for mAb 1H11
Assay type: binding
Conditions: for Results: peptide binding to mAb 1H11, 1 μg synthetic peptide = X nmole BCE: nanomoles Bone Collagen Equivalents equivalent to 1 μg peptide, back fit into OSTEOMARK standard curve, values between 0.5 and 1 OD averaged; for binding to mAb 1H11 (in words): synthetic peptide, antibody inhibition assay
From the text: Generally, a milligram per mL solution of the peptide was made in PBS. The absorbence at A280 was read and the concentration confirmed. Dilutions of the peptide were then made in a buffer such as OSTEOMARK (TM) calibrator diluent (OSTEOMARK Assay, Ostex International, Seattle, Wash.). Working strength concentrations were between 10 and 0.01 micrograms per milliliter.
To test the apparent affinity of the synthetic peptides for mAb 1H11, the OSTEOMARK assay was run using OSTEOMARK kits and components, including monoclonal antibody 1H11. A standard curve was run using OSTEOMARK calibrators. Peptide samples were generally tested at 10, 3, 1, and down to 0.01 μG per mL. The standard OSTEOMARK curve was generated using a four parameter logistic curve fit program (MedData Inc., N.Y., N.Y.). Peptide values were back fit into the standard curve and values were reported in picomoles Bone Collagen Equivalents (BCE)/mL (which equals nanomolar BCE, or nM BCE).
Values in the Table are reported as the number of nanomoles of BCE equivalent to a microgram of a given peptide. Antibody binding values below 500 nMole BCE were considered to be commercially insignificant.

Results: peptide binding to mAb 1H11, 1 μg synthetic peptide = X nmole BCE [nmole BCE]	Molecule	further results
183	CSCC[C@H](NC(=O)CNC(=O)[C@H](CC(=O)O)NC(=O)[C@H](Cc1ccc(O)cc1)NC(=O)[C@@H]1CCC(=O)N1)C(=O)NCC(=O)N[C@H](C(=O)NCC(=O)O)C(C)C [SEQ ID NO:11, J Y D G M G V G] ([pGlu]YDGMGVG-OH)	
< 50	CC(C)[C@H](NC(=O)[C@H](C)NC(=O)[C@H](CCC(=O)O)NC(=O)CNC(=O)[C@H](CC(=O)O)NC(=O)[C@H](Cc1ccc(O)cc1)NC(=O)[C@@H]1CCC(=O)N1)C(=O)NCC(=O)O [SEQ ID NO:28, J Y D G E A V G] ([pGlu]YDGEAVG-OH)	binding to mAb 1H11 (in words): loss of mAb 1H11 binding affinity
860	CCC[C@H](NC(=O)CNC(=O)[C@H](CC(=O)O)NC(=O)[C@H](Cc1ccc(O)cc1)NC(=O)[C@@H]1CCC(=O)N1)C(=O)NCC(=O)N[C@H](C(=O)NCC(=O)O)C(C)C [SEQ ID NO:38, J Y D G X^5 G V G] ([pGlu]YDG[Nva]GVG-OH)	
< 50	J Y D G E G V G [SEQ ID NO:29]	binding to mAb 1H11 (in words): eliminate the requisite binding of mAb 1H11
1300	CC(C)[C@H](NC(=O)CNC(=O)[C@H](Cc1c[nH]c2ccccc12)NC(=O)CNC(=O)[C@H](CC(=O)O)NC(=O)[C@H](Cc1ccc(O)cc1)NC(=O)[C@@H]1CCC(=O)N1)C(=O)NCC(=O)O [SEQ ID NO:19, J Y D G W G V G] ([pGlu]YDGWGVG-OH)	
483	CC(C)[C@H](NC(=O)CNC(=O)[C@H](C)NC(=O)CNC(=O)[C@H](CC(=O)O)NC(=O)[C@H](Cc1ccc(O)cc1)NC(=O)[C@@H]1CCC(=O)N1)C(=O)NCC(=O)O [SEQ ID NO:1, J Y D G A G V G] ([pGlu]YDGAGVG-OH)	
114	CC(C)[C@H](NC(=O)CNC(=O)CNC(=O)CNC(=O)[C@H](CC(=O)O)NC(=O)[C@H](Cc1ccc(O)cc1)NC(=O)[C@@H]1CCC(=O)N1)C(=O)NCC(=O)O [SEQ ID NO:6, J Y D G G G V G] ([pGlu]YDGGGVG-OH)	
< 50	J Y D G E G V G L [SEQ ID NO:40, b13: -Lys added to the C-terminus]	binding to mAb 1H11 (in words): prevents mAb 1H11 binding
148	CC(C)[C@H](NC(=O)CNC(=O)[C@H](CCC(N)=O)NC(=O)CNC(=O)[C@H](CC(=O)O)NC(=O)[C@H](Cc1ccc(O)cc1)NC(=O)[C@@H]1CCC(=O)N1)C(=O)NCC(=O)O [SEQ ID NO:14, J Y D G Q G V G] ([pGlu]YDGQGVG-OH)	
6	CC(C)[C@H](NC(=O)CNC(=O)[C@H](CCC(=O)O)NC(=O)[C@@H](NC(=O)[C@H](CC(=O)O)NC(=O)[C@H](Cc1ccc(O)cc1)NC(=O)[C@@H]1CCC(=O)N1)C(C)C)C(=O)NCC(=O)O [SEQ ID NO:37, J Y D V E G V G] ([pGlu]YDVEGVG-OH)	binding to mAb 1H11 (in words): substantially eliminates mAb 1H11 binding affinity
3000	CC(C)[C@H](NC(=O)CNC(=O)[C@H](CCC(=O)O)NC(=O)CNC(=O)[C@H](CCC(=O)O)NC(=O)[C@H](Cc1ccc(O)cc1)NC(=O)[C@@H]1CCC(=O)N1)C(=O)NCC(=O)O [SEQ ID NO:30, J Y E G E G V G] ([pGlu]YEGEGVG-OH)	
252	CC(C)[C@H](NC(=O)CNC(=O)[C@@H](NC(=O)CNC(=O)[C@H](CC(=O)O)NC(=O)[C@H](Cc1ccc(O)cc1)NC(=O)[C@@H]1CCC(=O)N1)[C@@H](C)O)C(=O)NCC(=O)O [SEQ ID NO:17, J Y D G T G V G] ([pGlu]YDGTGVG-OH)	
30	CC(C)[C@H](NC(=O)CNC(=O)[C@H](CO)NC(=O)CNC(=O)[C@H](CC(=O)O)NC(=O)[C@H](Cc1ccc(O)cc1)NC(=O)[C@@H]1CCC(=O)N1)C(=O)NCC(=O)O [SEQ ID NO:16, J Y D G S G V G] ([pGlu]YDGSGVG-OH)	
250	CC[C@H](C)[C@H](NC(=O)CNC(=O)[C@H](CC(=O)O)NC(=O)[C@H](Cc1ccc(O)cc1)NC(=O)[C@@H]1CCC(=O)N1)C(=O)NCC(=O)N[C@H](C(=O)NCC(=O)O)C(C)C [SEQ ID NO:8, J Y D G I G V G] ([pGlu]YDGIGVG-OH)	
135	CC(C)[C@H](NC(=O)CNC(=O)[C@H](CC(N)=O)NC(=O)CNC(=O)[C@H](CC(=O)O)NC(=O)[C@H](Cc1ccc(O)cc1)NC(=O)[C@@H]1CCC(=O)N1)C(=O)NCC(=O)O [SEQ ID NO:12, J Y D G N G V G] ([pGlu]YDGNGVG-OH)	
14	CC(C)[C@H](NC(=O)CNC(=O)[C@H](CCC(=O)O)NC(=O)CNC(=O)[C@H](CC(=O)O)NC(=O)[C@H](Cc1ccccc1)NC(=O)[C@@H]1CCC(=O)N1)C(=O)NCC(=O)O [SEQ ID NO:36, J F D G E G V G] ([pGlu]FDGEGVG-OH)	binding to mAb 1H11 (in words): blocks mAb 1H11 binding
2400	CC(C)[C@H](NC(=O)CNC(=O)[C@H](CCC(=O)O)NC(=O)CNC(=O)[C@H](CC(=O)O)NC(=O)[C@H](Cc1ccc(O)cc1)NC(=O)[C@@H]1CCC(=O)N1)C(=O)NCC(=O)O [SEQ ID NO:4, J Y D G E G V G] ([pGlu]YDGEGVG-OH)	binding to mAb 1H11 (in words): Improved binding; binding to mAb 1H11 (in words) (listed as Gln-Tyr-Asp-Gly-Glu-Gly-Val-Gly): comparable to that of the cross-linked NTx antigen
104	CC(C)[C@H](NC(=O)CNC(=O)[C@H](Cc1ccc(O)cc1)NC(=O)CNC(=O)[C@H](CC(=O)O)NC(=O)[C@H](Cc1ccc(O)cc1)NC(=O)[C@@H]1CCC(=O)N1)C(=O)NCC(=O)O [SEQ ID NO:20, J Y D G Y G V G] ([pGlu]YDGYGVG-OH)	
< 50	CC(C)[C@H](NC(=O)CNC(=O)[C@H](CCC(=O)O)NC(=O)[C@H](C)NC(=O)[C@H](CC(=O)O)NC(=O)[C@H](Cc1ccc(O)cc1)NC(=O)[C@@H]1CCC(=O)N1)C(=O)NCC(=O)O [SEQ ID NO:27, J Y D A E G V G] ([pGlu]YDAEGVG-OH)	binding to mAb 1H11 (in words): substantially eliminates mAb 1H11 binding affinity
750	CC(C)[C@H](NC(=O)CNC(=O)[C@H](CCCC(=O)O)NC(=O)CNC(=O)[C@H](CC(=O)O)NC(=O)[C@H](Cc1ccc(O)cc1)NC(=O)[C@@H]1CCC(=O)N1)C(=O)NCC(=O)O [SEQ ID NO:34, J Y D G X^4 G V G] ([pGlu]YDG[Aad]GVG-OH)	
< 50	CC(C)[C@H](NC(=O)CNC(=O)[C@H](CCC(=O)O)NC(=O)CNC(=O)[C@H](CC(=O)O)NC(=O)[C@H](Cc1ccc(O)cc1)NC(=O)[C@@H]1CCC(=O)N1)C(=O)NCC(N)=O [SEQ ID NO:44, J Y D G E G V X^6] ([pGlu]YDGEGVG-NH2)	binding to mAb 1H11 (in words): prevented recognition
1000	CC(C)[C@H](NC(=O)CNC(=O)[C@H](CS(=O)(=O)O)NC(=O)CNC(=O)[C@H](CC(=O)O)NC(=O)[C@H](Cc1ccc(O)cc1)NC(=O)[C@@H]1CCC(=O)N1)C(=O)NCC(=O)O [SEQ ID NO:26, j Y D G X^2 G V G] ([pGlu]YDG[Cya]GVG-OH)	
23	CC(C)[C@H](NC(=O)CNC(=O)[C@H](CCCNC(=N)N)NC(=O)CNC(=O)[C@H](CC(=O)O)NC(=O)[C@H](Cc1ccc(O)cc1)NC(=O)[C@@H]1CCC(=O)N1)C(=O)NCC(=O)O [SEQ ID NO:15, J Y D G R G V G] ([pGlu]YDGRGVG-OH)	
	CC(C)[C@H](NC(=O)CNC(=O)[C@H](CC(=O)O)NC(=O)CNC(=O)[C@H](CC(=O)O)NC(=O)[C@H](Cc1ccc(O)cc1)NC(=O)[C@@H]1CCC(=O)N1)C(=O)NCC(=O)O [SEQ ID NO:31, J Y D G D G V G] ([pGlu]YDGDGVG-OH)	Results: peptide binding to mAb 1H11, 1 μg synthetic peptide = X nmole BCE (listed as 31): 1400 nmole BCE
1000	CC(C)[C@H](NC(=O)CNC(=O)[C@H](CC(=O)O)NC(=O)CNC(=O)[C@H](CCC(=O)O)NC(=O)[C@H](Cc1ccc(O)cc1)NC(=O)[C@@H]1CCC(=O)N1)C(=O)NCC(=O)O [SEQ ID NO:32, J Y E G D G V G] ([pGlu]YEGDGVG-OH)	
230	CC(C)C[C@H](NC(=O)CNC(=O)[C@H](CC(=O)O)NC(=O)[C@H](Cc1ccc(O)cc1)NC(=O)[C@@H]1CCC(=O)N1)C(=O)NCC(=O)N[C@H](C(=O)NCC(=O)O)C(C)C [SEQ ID NO:10, J Y D G L G V G] ([pGlu]YDGLGVG-OH)	
2056	CC(C)[C@H](NC(=O)CNC(=O)[C@@H]1CCCN1C(=O)CNC(=O)[C@H](CC(=O)O)NC(=O)[C@H](Cc1ccc(O)cc1)NC(=O)[C@@H]1CCC(=O)N1)C(=O)NCC(=O)O [SEQ ID NO:13, J Y D G P G V G] ([pGlu]YDGPGVG-OH)	
